Reference: patent US20240130988A1, “Use of stilbene compounds in the preparation of anti-tumor drugs” (Guangzhou AnHao Pharmaceutical Technology CO., LTD., priority 2022, published 2024)
Marks after values point to notes of the source that are not given here.

Columns and labels:
[1] = test system: LLC (mouse lung cancer cells); test: Enrichment of CD8+ cytotoxic T lymphocytes in tumor tissue, Lewis non-small cell lung cancer model of mice; format: in vivo; details: 400 mg/kg ip once a day for 10 days, flow cytometry
Procedure: LLC (mouse lung cancer cells) were a mouse Lewis lung cancer cells.
The modeling method for LLC cell lung cancer in mice was as follows:
LLC cells were cultured in the general medium containing 10% fetal bovine serum and 100 μg/mL of double antibody (penicillin±streptomycin), and then cultivated in a 37° C., 5% CO2 cell incubator for routine incubation. LLC cells, that had grown to logarithmic phase, were digested with 0.25% trypsin (containing EDTA) to form a cell suspension, which was centrifuged at 1000 rpm/min for 3 min. The supernatant was discarded, and cell precipitates were collected, that were resuspended in culture medium without serum and double antibody. The cell suspension was further centrifuged to adjust the volume under the same conditions with the aid of cell counting, so as to prepare a cell suspension at a concentration of […] was injected into the right abdomen of each mouse, to complete the inoculation of tumor cells. The tumor was allowed to grew about 10 days, and the volume reached around 100 mm^3, before the mice were treated with test compounds.
Drug preparation: compounds 1-13 of the present invention were respective prepared into an injection with injection water.
Experimental methods: The model mice with LLC cell lung cancer were treated by intraperitoneal administration of 400 mg/kg injection containing the compound of the present invention. The model mice were divided into a negative control group (model mice only receiving equal volume of injection water by intraperitoneal administration) and treatment groups (model mice receiving the injection prepared with the compound of the present invention by intraperitoneal administration). The intraperitoneal injection regimen was carried out by injecting once a day at the pre-determined time. Before administration, the mice were weighed, and then treated with the injection at a dosage of 10 mL/kg, After successive administration for 10 days, that is, on the 10th day after receiving treatment, the mice were sacrificed, and the subcutaneous tumors were stripped to detect the ratio of cytotoxic T lymphocyte antigen CD8^+ in tumor tissues of the negative group and the treatment group by flow cytometry.
CD8^+ tumor-infiltrating lymphocytes in tumor tissues were detected by flow cytometry. The specific steps were as follows:
The mice were sacrificed, and then the abdominal epidermis of the mice was cut open using ophthalmic scissors, to fully expose the subcutaneous tumors. The subcutaneous tumor tissues on the right side of the mouse's abdomen were gradually peeled off with tweezers and ophthalmic scissors. After rinsing with PBS, the stripped tumor tissues were cut into about 1 mm using ophthalmic scissors, and then placed in 3 mL of PBS buffer containing 100 μg/mL of hyaluronidase. A centrifuge tube containing a dispersed liquid was placed in a water bath and kept at 37° C. for 20 min. A pipette was used to blow and shake the digestive tumor tissues every 5 minutes to fully digest. The dispersed liquid containing undigested tumor tissues was filtered through a 70 μm stainless steel cell screen, and the remaining undigested tumor tissues were ground using a push rod of 20 mL syringe on 70 μm cell screen and rinsed 5 times with 1 mL of PBS while grinding. The cell suspension passing the cell screen was transferred to a 15 mL centrifuge tube, and centrifuged at 4000 rpm for 3 min. Then, cell precipitates were collected, to which was added 2 mL of red cell lysis buffer, and rested for 10 min, followed by centrifuging at 4000 rpm for 3 min. After washing with PBS, the cells were resuspended by adding 2-3 mL of PBS.
An appropriate amount of cell suspension was used as the sample for flow cytometry, and after counting, the cell suspension was adjusted to have a concentration of 5×10^6/mL. 100 μL of cell suspension was added to a test tube with a pipettor. […]

[2] = test system: human liver cancer QGY7703; test: Human liver cancer QGY7703 transplanted tumor in nude mice; format: in vivo, BALB/C nude mice; design: key to RTV (d 18): RTV = Vt/Vo, tumor volume relative to volume at grouping (d1); details: QGY7703, 100 mg/kg iv × 14
Procedure: A human liver cancer QGY7703 model transplanted into nude mice was used in the experiment to investigate the anti-tumor effect of test compounds. The mice were intravenously injected at a dosage of 100 mg/kg for 14 days, and the tumor inhibition rate against human liver cancer QGY7703 was measured.
(§1) Preparation: The compound was prepared as the injection at the desired concentration with sterile normal saline, prior to administration.
Animal strain: BALB/C nude mice (SPF grade), weight: 19-21 g, gender: male. Number of animals in each treatment group: 8; number of animals in the control group: >12.
(§2) The tumor blocks of human liver cancer QGY7703 with good growth were cut into uniform small pieces of 3 mm under sterile conditions, and then subcutaneously inoculated into the right armpit of each mouse with a cannula. These mice were divided into 9 groups, 8 mice for each treatment group, while more than 12 mice were included in the control group.
(§3) 14 days after inoculation, the average volume of the tumor block was about 100 mm^3. The animals were regrouped based on the size of the tumor, and the animals with tumors that were too large and too small were sifted out. For each group, the average volume of tumors was basically the same, and then the mice were initially treated with test compounds. The mice in the treatment groups were intravenously injected once a day for 14 days, at a dosage of 0.1 mL/20 g body weight; the mice in the control group were given the same volume of sterile normal saline. From the 14th day of inoculation, the long diameter a (mm) of the tumor, together with the perpendicular short diameter b (mm), was measured using a digital electronic caliper, twice a week. The calculation formula of tumor volume is: TV=ab^2/2, and the formula for calculating the relative tumor volume is RTV=Vt/Vo, wherein Vo denotes the tumor volume measured when the mice were divided into groups (i.e. d1), and Vt is the tumor volume from each measurement.
(§4) The result determination is based on the following formula: […]

[3] = test system: nonfusion human umbilical vein endothelial cells (HUVEC); test: TMT quantitative proteomics on nonfusion HUVEC; format: cell-based; details: 10 μM; for Differentially expressed proteins: more than 1.5 times or less than 0.67 times vs control; for Down-regulation / Up-regulation: number of proteins
Procedure: Nonfusion human umbilical vein endothelial cells (HUVEC) were used to simulate new tumor blood vessels, while confluent HUVECs were used to simulate normal blood vessels, to construct experimental models. Two different HUVECs were treated with the compound at the same dosage of 10 μM, to simulate the fusion cell state, and proteome samples were prepared. After preparation of peptide segments, the segments were labelled with TMT, and a quantitative proteomics analysis was carried out. The efficiency of TMT labeling was higher than 99.4%, and a total of 28372 peptide segments from 4934 proteins were characterized using a strict 1% FDR limit. Among them, 4909 quantifiable proteins were identified, indicating reliable quality. The nonfusion treatment groups and the fusion treatment groups were compared with their respective control groups, and the control group was used as a reference, with a significant difference of more than 1.5 times or less than 0.67 times as the protein score standard.
The total cell proteins of the samples in nonfusion cell groups and fusion cell groups were extracted separately, and 2 μg of protein samples were subjected to quality analysis, The quantitative proteomics experiments were carried out, and the protein concentration assay was performed by quantitative grayscale measurement.
Data analysis: The human protein database (Scientific name: Homo sapiens, 9606) was downloaded from UniProt, MaxQuant (v 1.5.5.1) search engine was used to search for the database. A total of 4934 proteins (4909 quantitative proteins) and 28372 peptide segments were identified by TMT quantitative proteomics experiments, with a labeling efficiency of more than 99%, and the complete digestion occupied 86.3%.

[4] = test system: LLC (mouse lung cancer cells); test: Enrichment of CD8+ cytotoxic T lymphocytes in tumor tissue, Lewis non-small cell lung cancer model of mice; format: in vivo; details: 400 mg/kg ip once a day for 10 days, CD8+ immunohistochemistry
[5] = test system: human renal cell carcinoma AGHN; test: Human renal cell carcinoma AGHN transplanted tumor in nude mice; format: in vivo, BALB/C nude mice; details: 200 mg/kg ip × 14
Procedure: A human renal cell carcinoma AGHN model transplanted into nude mice was used in the experiment to investigate the anti-tumor effect of test compounds. […] AGHN was measured.
as §1
Animal strain: BALB/C, nude mice (SPF grade), weight: 19-21 g, gender: male. Number of animals in each treatment group: 8; number of animals in the control group: >12.
as §2, with “renal cell carcinoma AGHN” for “liver cancer QGY7703”, “The” for “These”, “>12” for “more than 12”
as §3, with “about 100 mm^3, The animals” for “about 100 mm^3. The animals”, “The mice were intraperitoneally” for “The mice in the treatment groups were intravenously”, “mice were intraperitoneally injected once” for “groups were intravenously injected once”, “dosage of 0.2 mL/20 g” for “dosage of 0.1 mL/20 g”, “tumor volume is: RTV=Vt/Vo, wherein” for “tumor volume is RTV=Vt/Vo, wherein”, “and Vt denotes the tumor” for “and Vt is the tumor”
as §4

[6] = test system: human ovarian cancer A2780; test: Human ovarian cancer A2780 transplanted tumor in nude mice; format: in vivo, BALB/C nude mice; details: A2780, 200 mg/kg ip × 14
Procedure: A human ovarian cancer A2780 model transplanted into nude mice was used in the experiment to investigate the anti-tumor effect of test compounds.
as §1
Animal strain: BALB/C nude mice (SPF grade), weight: 19-21 g, gender: male.
Number of animals in each treatment group: 8; number of animals in the control group: >12.
as §2, with “ovarian” for “liver”, “A2780 growing well” for “QGY7703 with good growth”, “The” for “These”, “>12” for “more than 12”
as §3, with “mice” for “mice in the treatment groups”, “intraperitoneally” for “intravenously”, “0.2” for “0.1”
as §4

human lung cancer A549 = test: Human lung cancer A549 transplanted tumors in nude mice; format: in vivo, BALB/C nude mice; details: A549, 400 mg/kg ig × 14
Procedure: In this experiment, a human lung cancer A549 model transplanted into nude mice was selected to study the anti-tumor effect of test compounds. The mice were treated at a dosage of 400 mg/kg by gavage for 14 days, and the tumor inhibition rate against human lung cancer A549 was measured.
Preparation: The compound was prepared as the solution at the desired concentration with distilled water, prior to administration.
Animal strain: BALB/C nude mice (SPF grade), weight: 19-21 g, gender: male. Number of animals in each treatment group: 8; Number of animals in the control group: >12.
Lung cancer A549 tumor blocks with good growth were chosen and cut into uniform small pieces of 3 mm under sterile conditions, and then subcutaneously inoculated into the right armpit of each mouse with a cannula. These mice were divided into 9 groups, 8 mice for each treatment group, while more than 12 mice were included in the control group.
14 days after inoculation, the average volume of the tumor mass was about 100 mm^3. The animals were regrouped based on the size of the tumor, and the mice with tumors that were too large and too small were eliminated. For each group, the average volume of tumors was basically the same, and then the mice were treated with test compounds. The mice in the treatment groups were administered once a day by gavage for 14 successive days, at a dosage of 0.5 mL/20 g body weight; the mice in the control group were given the same volume of physiological saline. From the 14th day of inoculation, the long diameter a (mm) of the tumor, together with the perpendicular short diameter b (mm), was measured using a digital electronic caliper, twice a week. The calculation formula of tumor volume is: TV=ab^2/2, and the formula for calculating the relative tumor volume is RTV=Vt/Vo, wherein Vo denotes the tumor volume measured when the mice were divided into groups (i.e. d1), and Vt is the tumor volume from each measurement.
as §4

SMILES	The ratio of CD8^+ in total immune cells of tumor tissues (%) [1] [%]	inhibition in vivo at 100 mg/kg ([2]; Mus musculus, QGY-7703, read-out: Tumor inhibitory rate %) [%]	RTV (d 18) [2]	Differentially expressed proteins [3]	Down-regulation [3]	Up-regulation [3]	The ratio of distribution area in tumor tissues (%) [4] [%]	RTV (d 18) [5]	Tumor inhibitory rate % [5]	RTV (d 18) [6]	Tumor inhibitory rate % [6]	RTV (d 22) (human lung cancer A549)	inhibition in vivo at 400 mg/kg (human lung cancer A549; Mus musculus, po, read-out: Tumor inhibitory rate %) [%]
COc1ccc(/C=C(/C(=O)O)c2cc(OC)c(OC)c(OC)c2)c(OC)c1O [Compound 12, (E)-3-(3-hydroxy-2,4-dimethoxyphenyl)-2-(3,4,5-trimethoxyphenyl)acrylic acid]	0.0753 ± 0.0103	62.2	4.86 ± 0.59	322	314	8	5.883 ± 0.6723	5.62 ± 0.59	58.48^## %				
CCOc1ccc(/C=C(/C(=O)O)c2cc(OC)c(OC)c(OC)c2)cc1O [Compound 13, (E)-3-(4-ethoxy-3-hydroxyphenyl)-2-(3,4,5-trimethoxyphenyl)acrylic acid]	0.0723 ± 0.0126			319	312	7	6.547 ± 0.5843			4.78 ± 0.83	53.64^## %	3.83 ± 0.64	67.4
